Literature values, collected in patent publication US20250288728A1, “SYSTEMS AND METHODS FOR GEL-BASED NEUROMODULATION” (Tulavi Therapeutics, Inc., priority 2018, published 2025).

Assays:
[1] = test system: sympathetic ganglia; conditions: in vitro; 4 μg/ml (10 uM); within 36 hours
[2] = test system: TRPV1 expressing cardiac nerve endings; conditions: 50 μg/ml RTX (10% ethanol in 10% Tween 80/isotonic saline) painted twice on right and left ventricles

Molecule | sympathetic ganglia cell death [1] | duration of complete ablation of TRPV1 expressing cardiac nerve endings [2]
Cholesterol oxides | rapid cell sympathetic ganglia cell death | –
C=C(C)[C@]12C[C@@H](C)[C@@]34O[C@](Cc5ccccc5)(O[C@@H]1[C@@H]3C=C(COC(=O)Cc1ccc(O)c(OC)c1)C[C@]1(O)C(=O)C(C)=C[C@@H]41)O2 [RTX, resiniferatoxin] | – | over 10 weeks
